Test results taken from US20240391931A1 (Bristol-Myers Squibb Company, priority 2021, published 2024).

Assays:
EGFR = EGFR (Homo sapiens, UniProt P00533); assay: EGFR signaling (pEGFR Tyr1068/total EGFR MSD) in A431 cells; format: cell-based; parameters: endogenous in cells; host or cells: A431, N87; details: for EC50: A431 cells, read-out: A431 pEGFR EC50; for Selectivity A431 EC50/BT474 EC50: ratio A431 pEGFR EC50 to BT474 pHER2 EC50; for Selectivity A431 EC50/HEKYVMA EC50: ratio A431 pEGFR EC50 to HEK YVMA pHER2 EC50
Outline: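 EC50 was fitted with variable Hill slope from MSD pTyr1068/total EGFR ratios, expressed as % DMSO control. A431 cells were starved overnight, then exposed 1.5 h to eight concentrations from 10 to 0.005 μM in 1% FBS before a 10-min 100 ng/mL EGF pulse.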

EGFR WT = target: T1, EGFR WT (Homo sapiens, UniProt P00533); assay: Enzymatic assay EGFR WT (method c); format: biochemical; details: [EGFR WT]=2 nM, [ATP]=1 mM, [Peptide 22]=1 μM
T1 construct: purchased Thermo Fisher, Carlsbad, CA ERBB1 PR7295B
Outline: (§1)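 Initial rates over 0–3600 s, read as substrate-to-product conversion by capillary electrophoresis, were converted to percent inhibition and fitted with a variable-slope curve to give IC50. Conditions: EGFR WT 2 nM with 1 mM ATP; HER2 YVMA 5 nM or HER2 WT 12.5 nM, each with 25 μM ATP. All used 1 μM Peptide 22 in pH 7.5 HEPES/Mn/Mg buffer.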

HER2 WT = target: T2, HER2 WT (Homo sapiens, UniProt P04626); assay: Enzymatic assay HER2 WT (method a); format: biochemical; details: [HER2 WT]=12.5 nM, [ATP]=25 μM, [Peptide 22]=1 μM
T2 construct: purchased ProQinase, Freiburg, Germany ERBB2 0108-0000-1
Outline: as §1

EGFR, sequence (P00533 25-1210): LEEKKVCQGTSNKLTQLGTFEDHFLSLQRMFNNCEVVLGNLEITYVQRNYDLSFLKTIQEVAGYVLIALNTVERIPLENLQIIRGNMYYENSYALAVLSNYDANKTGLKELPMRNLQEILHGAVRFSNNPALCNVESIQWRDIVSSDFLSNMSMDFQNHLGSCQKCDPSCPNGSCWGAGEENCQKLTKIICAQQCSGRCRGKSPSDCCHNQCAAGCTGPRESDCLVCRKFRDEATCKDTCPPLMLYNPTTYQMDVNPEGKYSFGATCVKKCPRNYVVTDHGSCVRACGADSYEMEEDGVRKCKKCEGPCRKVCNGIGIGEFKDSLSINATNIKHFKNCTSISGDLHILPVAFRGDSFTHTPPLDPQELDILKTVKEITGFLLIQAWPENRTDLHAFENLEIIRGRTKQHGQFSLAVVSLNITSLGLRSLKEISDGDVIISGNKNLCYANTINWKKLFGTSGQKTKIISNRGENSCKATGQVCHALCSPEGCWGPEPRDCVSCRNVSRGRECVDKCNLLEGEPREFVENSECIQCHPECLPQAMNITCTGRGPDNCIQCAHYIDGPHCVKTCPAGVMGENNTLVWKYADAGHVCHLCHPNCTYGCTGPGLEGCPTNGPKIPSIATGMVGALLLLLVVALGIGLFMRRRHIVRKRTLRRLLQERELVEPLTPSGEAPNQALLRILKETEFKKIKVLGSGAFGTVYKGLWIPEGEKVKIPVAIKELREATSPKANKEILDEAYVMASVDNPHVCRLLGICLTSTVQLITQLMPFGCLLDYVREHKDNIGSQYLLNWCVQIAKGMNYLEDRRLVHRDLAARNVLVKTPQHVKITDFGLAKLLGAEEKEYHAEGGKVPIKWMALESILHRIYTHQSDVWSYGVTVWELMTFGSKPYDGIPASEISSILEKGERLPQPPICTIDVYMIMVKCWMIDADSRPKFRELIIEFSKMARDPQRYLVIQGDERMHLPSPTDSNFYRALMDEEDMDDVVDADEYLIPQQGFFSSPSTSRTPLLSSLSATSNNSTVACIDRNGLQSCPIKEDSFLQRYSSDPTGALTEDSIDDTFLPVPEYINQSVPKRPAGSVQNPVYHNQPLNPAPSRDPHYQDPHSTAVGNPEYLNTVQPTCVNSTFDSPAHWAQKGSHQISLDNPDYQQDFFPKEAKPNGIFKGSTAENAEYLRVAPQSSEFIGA
T1 sequence (P00533 25-1210): as above
T2 sequence (P04626 23-1255): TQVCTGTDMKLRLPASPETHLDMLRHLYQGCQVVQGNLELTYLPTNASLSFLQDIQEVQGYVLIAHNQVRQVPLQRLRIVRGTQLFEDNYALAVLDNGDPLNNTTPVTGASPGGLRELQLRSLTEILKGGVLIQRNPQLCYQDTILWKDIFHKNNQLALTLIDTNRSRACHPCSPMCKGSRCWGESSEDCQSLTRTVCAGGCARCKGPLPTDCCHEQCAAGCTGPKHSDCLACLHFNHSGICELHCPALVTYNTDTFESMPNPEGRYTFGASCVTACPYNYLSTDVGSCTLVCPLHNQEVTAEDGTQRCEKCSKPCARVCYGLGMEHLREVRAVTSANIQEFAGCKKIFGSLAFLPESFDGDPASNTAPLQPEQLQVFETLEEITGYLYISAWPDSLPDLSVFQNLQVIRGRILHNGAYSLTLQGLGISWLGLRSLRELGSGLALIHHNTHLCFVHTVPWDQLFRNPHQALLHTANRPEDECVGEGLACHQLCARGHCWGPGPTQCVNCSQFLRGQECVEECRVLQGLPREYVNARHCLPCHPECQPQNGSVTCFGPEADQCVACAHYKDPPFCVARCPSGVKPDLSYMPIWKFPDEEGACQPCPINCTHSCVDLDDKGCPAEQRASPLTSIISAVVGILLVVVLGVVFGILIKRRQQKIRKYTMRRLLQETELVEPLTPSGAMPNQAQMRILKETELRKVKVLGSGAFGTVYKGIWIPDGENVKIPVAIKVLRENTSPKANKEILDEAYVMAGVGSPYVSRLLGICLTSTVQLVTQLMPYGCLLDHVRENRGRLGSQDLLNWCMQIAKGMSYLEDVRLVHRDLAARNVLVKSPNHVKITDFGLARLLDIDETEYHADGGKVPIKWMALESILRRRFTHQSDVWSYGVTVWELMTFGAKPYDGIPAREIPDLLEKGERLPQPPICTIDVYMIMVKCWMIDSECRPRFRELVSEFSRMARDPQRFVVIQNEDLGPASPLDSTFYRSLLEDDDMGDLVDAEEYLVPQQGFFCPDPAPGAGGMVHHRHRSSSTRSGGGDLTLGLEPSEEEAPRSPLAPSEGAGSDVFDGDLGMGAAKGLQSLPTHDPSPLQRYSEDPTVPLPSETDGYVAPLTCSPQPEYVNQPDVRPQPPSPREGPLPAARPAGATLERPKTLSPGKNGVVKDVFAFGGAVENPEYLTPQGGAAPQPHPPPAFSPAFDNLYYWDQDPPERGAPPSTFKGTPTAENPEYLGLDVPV

| Structure (SMILES) | EC50 (EGFR) [µM] | Selectivity A431 EC50/BT474 EC50 (EGFR) | Selectivity A431 EC50/HEKYVMA EC50 (EGFR) | IC50 (EGFR WT) [µM] | IC50 (HER2 WT) [µM] |
| --- | --- | --- | --- | --- | --- |
| Cc1ccc(Oc2ccc(Nc3ncnc4sc5c(c34)CCN(C(=O)/C=C/CN3CCOCC3)C5)cc2C)cn1 [Compound 17, (E)-1-(4-((3-Methyl-4-((6-methylpyridin-3-yl)oxy)phenyl)amino)-5,6-dihydropyrido[4′,3′:4,5]thieno[2,3-d]pyrimidin-7(8H)-yl)-4-morpholinobut-2-en-1-one] | 0.1 to 1 | C (C: ≥ 10 and < 20) | A (A: ≥100) | > 10 | < 0.1 |
| O=C(/C=C/CN1CCOCC1)N1CCc2c(sc3ncnc(Nc4ccc(Oc5ccc6ncnn6c5)c(Cl)c4)c23)C1 [Compound 18] | 0.1 to 1 | B (B: ≥ 20 and < 100) | B (B: ≥ 20 and < 100) | > 10 | < 0.1 |
| Cc1cc(Nc2ncnc3sc4c(c23)CCN(C(=O)/C=C/CN(C)C)C4)ccc1Oc1ccc2scnc2c1 [Compound 107, (E)-1-(4-((4-(benzo[d]thiazol-5-yloxy)-3-methylphenyl)amino)-5,8-dihydropyrido[4′,3′:4,5]thieno[2,3-d]pyrimidin-7(6H)-yl)-4-(dimethylamino)but-2-en-1-one] | < 0.1 | C (C: ≥ 10 and < 20) | A (A: ≥100) | 1 to 10 | < 0.1 |
| Cc1ccc(Oc2ccc(Nc3ncnc4sc5c(c34)CN(C(=O)/C=C/CN(C)C)CC5)cc2C)cn1 [Compound 108, (E)-4-(Dimethylamino)-1-(4-((3-methyl-4-((6-methylpyridin-3-yl)oxy)phenyl)amino)-7,8-dihydropyrido[3′,4′:4,5]thieno[2,3-d]pyrimidin-6(5H)-yl)but-2-en-1-one] | < 0.1 | C (C: ≥ 10 and < 20) | C (C: ≥ 10 and < 20) | > 10 | < 0.1 |
| Cc1cc(Nc2ncnc3sc4c(c23)CCN(C(=O)/C=C/CN(C)C)C4)ccc1Oc1ccc2nccn2c1 [Compound 109, (E)-4-(dimethylamino)-1-(4-((4-(imidazo[1,2-a]pyridin-6-yloxy)-3-methylphenyl)amino)-5,6-dihydropyrido[4′,3′:4,5]thieno[2,3-d]pyrimidin-7(8H)-yl)but-2-en-1-one] | 0.1 to 1 | D (D: ≥ 5 and < 10) | E (E: >1 and < 5) | > 10 | 0.1 to 1 |
| Cc1cn2ccc(Oc3ccc(Nc4ncnc5sc6c(c45)CCN(C(=O)/C=C/CN(C)C)C6)cc3C)cc2n1 [Compound 110, (E)-4-(dimethylamino)-1-(4-((3-methyl-4-((2-methylimidazo[1,2-a]pyridin-7-yl)oxy)phenyl)amino)-5,8-dihydropyrido[4′,3′:4,5]thieno[2,3-d]pyrimidin-7(6H)-yl)but-2-en-1-one] | 1 to 10 | B (B: ≥ 20 and < 100) | C (C: ≥ 10 and < 20) | > 10 | 0.1 to 1 |
| Cc1cc(Nc2ncnc3sc4c(c23)CN(C(=O)/C=C/CN(C)C)C4)ccc1Oc1ccc2ncnn2c1 [Compound 111, (E)-1-(4-((4-([1,2,4]Triazolo[1,5-a]pyridin-6-yloxy)-3-methylphenyl)amino)-5H-pyrrolo[3′,4′:4,5]thieno[2,3-d]pyrimidin-6(7H)-yl)-4-(dimethylamino)but-2-en-1-one] | 1 to 10 | A (A: ≥100) | B (B: ≥ 20 and < 100) | > 10 | < 0.1 |
| Cc1ccc(Oc2ccc(Nc3ncnc4sc5c(c34)CCN(C(=O)/C=C/CN3CCC[C@H](n4cccn4)C3)C5)cc2C)cn1 [Compound 112] | 0.1 to 1 | B (B: ≥ 20 and < 100) | C (C: ≥ 10 and < 20) | > 10 | < 0.1 |
| Cc1ccc(Oc2ccc(Nc3ncnc4sc5c(c34)CCN(C(=O)/C=C/CN3CCCC(c4nccs4)C3)C5)cc2C)cn1 (centres unmarked) [Compound 113] | 0.1 to 1 | B (B: ≥ 20 and < 100) | C (C: ≥ 10 and < 20) | > 10 | < 0.1 |
| Cc1ccc(Oc2ccc(Nc3ncnc4sc5c(c34)CCN(C(=O)/C=C/CN3CCC(O)C(C)(C)C3)C5)cc2C)cn1 (centres unmarked) [Compound 114] | 0.1 to 1 | B (B: ≥ 20 and < 100) | B (B: ≥ 20 and < 100) | > 10 | < 0.1 |
| Cc1ccc(Oc2ccc(Nc3ncnc4sc5c(c34)CCN(C(=O)/C=C/CN3CCCC34CCC4)C5)cc2C)cn1 [Compound 115] | 0.1 to 1 | C (C: ≥ 10 and < 20) | D (D: ≥ 5 and < 10) | > 10 | < 0.1 |
| Cc1ccc(Oc2ccc(Nc3ncnc4sc5c(c34)CCN(C(=O)/C=C/CN3CC(C)OC(C)C3C)C5)cc2C)cn1 (centres unmarked) [Compound 117] | 0.1 to 1 | B (B: ≥ 20 and < 100) | B (B: ≥ 20 and < 100) | > 10 | < 0.1 |
| Cc1ccc(Oc2ccc(Nc3ncnc4sc5c(c34)CCN(C(=O)/C=C/CN3CC4CC4(CO)C3)C5)cc2C)cn1 (centres unmarked) [Compound 118] | 0.1 to 1 | A (A: ≥100) | B (B: ≥ 20 and < 100) | > 10 | < 0.1 |
| Cc1ccc(Oc2ccc(Nc3ncnc4sc5c(c34)CCN(C(=O)/C=C/CN3CCCCC3(C)CO)C5)cc2C)cn1 (centres unmarked) [Compound 119] | 0.1 to 1 | B (B: ≥ 20 and < 100) | B (B: ≥ 20 and < 100) | > 10 | < 0.1 |
| Cc1ccc(Oc2ccc(Nc3ncnc4sc5c(c34)CCN(C(=O)/C=C/CN3C[C@H]4C[C@@H]3CC4C#N)C5)cc2C)cn1 (some centres unmarked) [Compound 120] | 0.1 to 1 | B (B: ≥ 20 and < 100) | B (B: ≥ 20 and < 100) | > 10 | < 0.1 |
| Cc1ccc(Oc2ccc(Nc3ncnc4sc5c(c34)CCN(C(=O)/C=C/CN3CC(C)(C)OC(C)(C)C3)C5)cc2C)cn1 [Compound 121] | 1 to 10 | B (B: ≥ 20 and < 100) | C (C: ≥ 10 and < 20) | > 10 | 1 to 10 |
| CC[C@H](NC/C=C/C(=O)N1CCc2c(sc3ncnc(Nc4ccc(Oc5ccc(C)nc5)c(C)c4)c23)C1)C(F)(F)F [Compound 122] | 0.1 to 1 | B (B: ≥ 20 and < 100) | B (B: ≥ 20 and < 100) | > 10 | < 0.1 |
| Cc1ccc(Oc2ccc(Nc3ncnc4sc5c(c34)CCN(C(=O)/C=C/CN3CC4(CCCC4)C3)C5)cc2C)cn1 [Compound 123] | 0.1 to 1 | C (C: ≥ 10 and < 20) | D (D: ≥ 5 and < 10) | > 10 | < 0.1 |
| Cc1ccc(Oc2ccc(Nc3ncnc4sc5c(c34)CCN(C(=O)/C=C/CN3CC[C@H](F)C3)C5)cc2C)cn1 [Compound 124] | < 0.1 | B (B: ≥ 20 and < 100) | C (C: ≥ 10 and < 20) | > 10 | < 0.1 |
| Cc1cc(Nc2ncnc3sc4c(c23)CCN(C(=O)/C=C/CN(C)C)C4)ccc1Oc1ccn2ccnc2c1 [Compound 126, (E)-4-(dimethylamino)-1-(4-((4-(imidazo[1,2-a]pyridin-7-yloxy)-3-methylphenyl)amino)-5,8-dihydropyrido[4′,3′:4,5]thieno[2,3-d]pyrimidin-7(6H)-yl)but-2-en-1-one] | 0.1 to 1 | B (B: ≥ 20 and < 100) | B (B: ≥ 20 and < 100) | > 10 | < 0.1 |
| Cc1nc2cc(Oc3ccc(Nc4ncnc5sc6c(c45)CCN(C(=O)/C=C/CN(C)C)C6)cc3C)ccn2n1 [Compound 127, (E)-4-(dimethylamino)-1-(4-((3-methyl-4-((2-methyl-[1,2,4]triazolo[1,5-a]pyridin-7-yl)oxy)phenyl)amino)-5,6-dihydropyrido[4′,3′:4,5]thieno[2,3-d]pyrimidin-7(8H)-yl)but-2-en-1-one] | 1 to 10 | A (A: ≥100) | B (B: ≥ 20 and < 100) | > 10 | 0.1 to 1 |
| COc1ccc(Oc2ccc(Nc3ncnc4sc5c(c34)CN(C(=O)/C=C/CN(C)C)C5)cc2C)cn1 [Compound 128, (E)-4-(dimethylamino)-1-(4-((4-((6-methoxypyridin-3-yl)oxy)-3-methylphenyl)amino)-5,7-dihydro-6H-pyrrolo[3′,4′:4,5]thieno[2,3-d]pyrimidin-6-yl)but-2-en-1-one] | 1 to 10 | B (B: ≥ 20 and < 100) | B (B: ≥ 20 and < 100) | > 10 | 0.1 to 1 |
